Results: patent US12687780B2, “Curable water-based composition, active-energy-ray-curable water-based composition, active-energy-ray-curable water-based ink, stored container, two-dimensional or three-dimensional image forming apparatus, two-dimensional or three-dimensional image forming method, cured product, and decorated body” (Ricoh Company, Ltd., priority 2021, dated 2026)

Test: Skin sensitivity: stimulation index (SI) value by the LLNA method (OECD test guideline 429)
Format: in vivo
Details: stimulation index of the single compound (raw material)

SI value	Structure (SMILES)
(see Synthesis example 2) SI = 1.01	C=CC(=O)NCC(=O)OC [Example A1-2, N-acryloylglycine methyl ester]
(see Synthesis example 3) SI = 1.21	C=CC(=O)NCC(=O)OCC [Example A1-3, N-acryloylglycine ethyl ester]
(see Synthesis example 5) SI = 1.45	C=CC(=O)NCCCC(=O)OC [Example A1-5, N-acryloyl-4-butyric acid methyl ester]
(see Synthesis example 6) SI = 1.37	C=CC(=O)NC(C)C(=O)OC (stereo not shown) [Example A1-6, N-acryloyl alaninemethyl ester]
(see Synthesis example 7) SI = 1.00	C=CC(=O)N(C)CC(=O)OC [Example A2-1, N-acryloyl-N-methyl glycine methyl ester]
SI = 1.23	C=CC(=O)NCCNC(=O)C=C [Example B1-2]

The remaining lines, values behind:

Structure (SMILES)	SI value
C=CC(=O)N1CCC(C(=O)OCC)CC1 [Example A2-5, ethyl N-acryloylpiperidine-4-carboxylate]	(see Synthesis example 10) SI = 1.70
C=CC(=O)NCNC(=O)C=C [Example B1-1]	SI = 1.08
C=CC(=O)NCCN(CCNC(=O)C=C)C(=O)C=C [Example B1-3]	“FOM-03007” obtained from FUJIFILM Corporation SI = 1.44
C=CC(=O)NCCN(CCN(CCNC(=O)CC)C(=O)C=C)C(=O)C=C [Example B1-4]	“FOM-03009” obtained from FUJIFILM Corporation SI = 1.52
